Measurements: US10870651B2, “Inhibitors of cyclin-dependent kinase 7 (CDK7)” (Dana-Farber Cancer Institute, Inc., priority 2014, dated 2020)

Assays:
CDK7 [1] = biological target: T1, CDK7 (Homo sapiens (Human), UniProt P50613); test: Inhibition of kinase activity, CDK7; assay type: biochemical; settings: co-factors cyclin H and MNAT1
Method: (§1) Compounds of the invention were assayed for activity against a variety of different kinases. Exemplary results are presented as calculated IC50 values (Table A1 & A2). In Table A1 and A2 “A” represents a calculated IC50 value of less than 100 nM; “B” represents a calculated IC50 value of greater than or equal to 100 nM and less than 1 μM; and “C” represents a calculated IC50 value of 1 μM or greater. The co-factors used for each kinase in the assays were as follows: CDK7: cyclin H and MNAT1; CDK2: cyclin A; CDK9: cyclin K.

CDK2 = CDK2 (Homo sapiens (Human), UniProt P24941); test: Inhibition of kinase activity, CDK2; assay type: biochemical; settings: co-factor cyclin A
Method: as §1

CDK9 = CDK9 (Homo sapiens (Human), UniProt P50750); test: Inhibition of kinase activity, CDK9; assay type: biochemical; settings: co-factor cyclin K
Method: as §1

CHEK2 = CHEK2 (Homo sapiens (Human), UniProt O96017); test: Inhibition of kinase activity, CHEK2; assay type: biochemical
Method: as §1

FGR = FGR (Homo sapiens (Human), UniProt P09769); test: Inhibition of kinase activity, FGR; assay type: biochemical
Method: as §1

HIPK4 = HIPK4 (Homo sapiens (Human), UniProt Q8NE63); test: Inhibition of kinase activity, HIPK4; assay type: biochemical
Method: as §1

PRKCQ = PRKCQ (Homo sapiens (Human), UniProt Q04759); test: Inhibition of kinase activity, PRKCQ; assay type: biochemical
Method: as §1

RET = RET (Homo sapiens (Human), UniProt P07949); test: Inhibition of kinase activity, RET; assay type: biochemical
Method: as §1

SRC = SRC (Homo sapiens (Human), UniProt P12931); test: Inhibition of kinase activity, SRC; assay type: biochemical
Method: as §1

MELK = MELK (Homo sapiens (Human), UniProt Q14680); test: Inhibition of kinase activity, MELK; assay type: biochemical
Method: as §1

[2] = test system: Jurkat T-cell acute lymphoblastic leukemia; test: Inhibition of cell proliferation (CellTiter-Glo), Jurkat; assay type: cell-based; settings: Homo sapiens, 72 hours incubation, CellTiter-Glo, 25,000 cells/well
Method: (§2) Exemplary compounds of the invention were tested at different concentrations. Cells were plated in 96-well plates at the following seeding densities: Jurkat T-cell acute lymphoblastic leukemia 25,000 cells/well; HCT116 colorectal carcinoma 8,000 cells/well; Kelly neuroblastoma 4,000 cells/well. The cells were treated with various concentration of compounds (ranging from 1 nM to 10 μM). DMSO solvent with no compound served as a control. Following incubation for 72 hours, cell survival following treatment with exemplary compounds described herein was assessed by CellTiter-Glo® Luminescent cell viability assay (Promega). IC50 values were determined using GRAPHPAD PRISM 6 software. Exemplary results are shown in Table A3, wherein “A” represents a calculated IC50 value of less than 500 nM; “B” represents a calculated IC50 value of greater than or equal to 500 nM and less than 5000 μM; and “C” represents a calculated IC50 value of 5000 μM or greater

[3] = test system: HCT116 colorectal carcinoma; test: Inhibition of cell proliferation (CellTiter-Glo), HCT116; assay type: cell-based; settings: Homo sapiens, HCT-116; 72 hours incubation, CellTiter-Glo, 8,000 cells/well
Method: as §2

Kelly neuroblastoma = test: Inhibition of cell proliferation (CellTiter-Glo), Kelly; assay type: cell-based; settings: 72 hours incubation, CellTiter-Glo, 4,000 cells/well
Method: as §2

CDK7 [4] = biological target: T1, CDK7; test: Labeling of CDK7 with an inhibitor (CAK complex, nano LC-MS); assay type: binding; settings: 10-fold molar excess of compound, 6 hrs at 37° C., trypsin digest
Method: CAK complex (Millipore cat#14-476) in 40 mM Hepes pH 7.4, 150 mM NaCl, 5% glycerol and 1 mM DTT with protease and phosphatase inhibitors was incubated with a 10-fold molar excess of Compound 101 for 6 hrs at 37° C. Proteins were resolved by SDS-PAGE, bands corresponding to CDK7 were digested in-gel with trypsin, and peptides analyzed by nano LC-MS using an Orbitrap XL mass spectrometer (ThermoFisher Scientific, San Jose, Calif.). Efficiency of labeling was estimated from the reduction in signal of the Cys312 containing peptide […] (SEQ ID NO: 3) compared to DMSO control. Signals from CDK7 peptides VPFLPGDSDLDQLTR (SEQ ID NO: 1) and LDFLGEGQFATVYK were used for normalization. See FIG. 1 for the total ion chromatograms (TIC) and extracted ion chromatograms (EIC) of the CDK7 peptides treated with DMSO (A-D) or Compound 101 (E-H). The labeled peptide was detected by mass spectrometry, as shown in the spectrum of FIG. 2.

T1 sequence (P50613 whole entry): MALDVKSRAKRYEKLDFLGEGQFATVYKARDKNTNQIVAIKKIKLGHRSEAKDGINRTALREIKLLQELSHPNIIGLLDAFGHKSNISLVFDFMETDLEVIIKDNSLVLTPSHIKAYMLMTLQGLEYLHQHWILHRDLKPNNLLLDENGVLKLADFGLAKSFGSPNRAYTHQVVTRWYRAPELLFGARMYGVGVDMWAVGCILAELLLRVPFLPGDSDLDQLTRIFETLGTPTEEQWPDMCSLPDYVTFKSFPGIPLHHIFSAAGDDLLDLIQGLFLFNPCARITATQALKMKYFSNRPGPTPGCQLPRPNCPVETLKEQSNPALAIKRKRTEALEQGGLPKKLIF
T1 sequence (P51946 whole entry partner): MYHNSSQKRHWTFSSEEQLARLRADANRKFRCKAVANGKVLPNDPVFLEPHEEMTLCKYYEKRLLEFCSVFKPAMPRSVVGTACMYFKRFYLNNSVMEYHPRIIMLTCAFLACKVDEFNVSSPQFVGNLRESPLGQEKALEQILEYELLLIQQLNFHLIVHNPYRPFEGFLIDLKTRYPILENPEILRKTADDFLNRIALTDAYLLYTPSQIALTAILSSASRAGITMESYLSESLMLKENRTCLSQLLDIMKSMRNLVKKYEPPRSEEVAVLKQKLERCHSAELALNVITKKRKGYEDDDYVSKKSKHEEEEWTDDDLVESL
T1 sequence (P51948 whole entry partner): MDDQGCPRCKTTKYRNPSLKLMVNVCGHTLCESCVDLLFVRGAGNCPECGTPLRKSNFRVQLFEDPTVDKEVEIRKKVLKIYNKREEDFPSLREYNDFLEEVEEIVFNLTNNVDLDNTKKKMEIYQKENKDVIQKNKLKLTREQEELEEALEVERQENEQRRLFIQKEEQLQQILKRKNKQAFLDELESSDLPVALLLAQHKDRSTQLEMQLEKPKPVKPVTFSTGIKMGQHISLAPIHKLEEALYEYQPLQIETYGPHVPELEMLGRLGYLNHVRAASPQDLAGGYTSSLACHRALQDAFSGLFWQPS
MELK, sequence (Q14680 whole entry): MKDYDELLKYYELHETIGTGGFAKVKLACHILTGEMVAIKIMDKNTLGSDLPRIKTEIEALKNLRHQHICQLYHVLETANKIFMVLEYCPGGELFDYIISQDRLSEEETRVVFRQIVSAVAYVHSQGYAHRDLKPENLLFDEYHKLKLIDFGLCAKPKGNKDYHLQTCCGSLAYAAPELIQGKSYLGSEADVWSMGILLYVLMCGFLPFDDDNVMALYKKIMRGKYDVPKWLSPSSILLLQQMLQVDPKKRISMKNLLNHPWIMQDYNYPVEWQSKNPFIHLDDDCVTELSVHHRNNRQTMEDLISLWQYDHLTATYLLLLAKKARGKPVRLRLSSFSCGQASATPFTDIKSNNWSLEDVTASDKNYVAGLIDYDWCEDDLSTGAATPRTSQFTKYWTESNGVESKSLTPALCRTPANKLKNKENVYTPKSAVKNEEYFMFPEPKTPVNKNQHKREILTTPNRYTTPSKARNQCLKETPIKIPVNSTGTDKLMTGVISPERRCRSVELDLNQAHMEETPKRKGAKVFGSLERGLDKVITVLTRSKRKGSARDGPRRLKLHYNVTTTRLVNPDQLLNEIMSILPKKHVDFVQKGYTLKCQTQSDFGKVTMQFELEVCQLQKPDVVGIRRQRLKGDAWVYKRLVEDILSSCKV
HIPK4, sequence (Q8NE63 whole entry): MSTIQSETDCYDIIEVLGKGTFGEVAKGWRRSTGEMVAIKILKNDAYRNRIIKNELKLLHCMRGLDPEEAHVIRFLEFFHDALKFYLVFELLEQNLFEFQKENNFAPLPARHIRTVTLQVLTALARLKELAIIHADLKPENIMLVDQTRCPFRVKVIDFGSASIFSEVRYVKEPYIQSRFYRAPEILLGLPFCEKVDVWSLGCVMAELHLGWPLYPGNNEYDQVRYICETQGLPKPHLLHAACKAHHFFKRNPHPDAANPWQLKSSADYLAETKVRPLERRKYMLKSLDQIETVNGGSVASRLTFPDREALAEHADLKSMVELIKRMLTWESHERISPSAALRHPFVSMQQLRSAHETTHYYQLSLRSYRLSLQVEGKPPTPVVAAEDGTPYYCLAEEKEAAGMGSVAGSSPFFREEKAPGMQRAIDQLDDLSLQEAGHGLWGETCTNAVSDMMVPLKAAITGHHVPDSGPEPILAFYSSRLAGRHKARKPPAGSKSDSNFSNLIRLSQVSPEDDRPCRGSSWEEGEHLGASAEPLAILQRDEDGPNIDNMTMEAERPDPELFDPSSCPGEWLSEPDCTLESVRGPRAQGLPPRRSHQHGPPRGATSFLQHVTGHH
RET, sequence (P07949 29-1114): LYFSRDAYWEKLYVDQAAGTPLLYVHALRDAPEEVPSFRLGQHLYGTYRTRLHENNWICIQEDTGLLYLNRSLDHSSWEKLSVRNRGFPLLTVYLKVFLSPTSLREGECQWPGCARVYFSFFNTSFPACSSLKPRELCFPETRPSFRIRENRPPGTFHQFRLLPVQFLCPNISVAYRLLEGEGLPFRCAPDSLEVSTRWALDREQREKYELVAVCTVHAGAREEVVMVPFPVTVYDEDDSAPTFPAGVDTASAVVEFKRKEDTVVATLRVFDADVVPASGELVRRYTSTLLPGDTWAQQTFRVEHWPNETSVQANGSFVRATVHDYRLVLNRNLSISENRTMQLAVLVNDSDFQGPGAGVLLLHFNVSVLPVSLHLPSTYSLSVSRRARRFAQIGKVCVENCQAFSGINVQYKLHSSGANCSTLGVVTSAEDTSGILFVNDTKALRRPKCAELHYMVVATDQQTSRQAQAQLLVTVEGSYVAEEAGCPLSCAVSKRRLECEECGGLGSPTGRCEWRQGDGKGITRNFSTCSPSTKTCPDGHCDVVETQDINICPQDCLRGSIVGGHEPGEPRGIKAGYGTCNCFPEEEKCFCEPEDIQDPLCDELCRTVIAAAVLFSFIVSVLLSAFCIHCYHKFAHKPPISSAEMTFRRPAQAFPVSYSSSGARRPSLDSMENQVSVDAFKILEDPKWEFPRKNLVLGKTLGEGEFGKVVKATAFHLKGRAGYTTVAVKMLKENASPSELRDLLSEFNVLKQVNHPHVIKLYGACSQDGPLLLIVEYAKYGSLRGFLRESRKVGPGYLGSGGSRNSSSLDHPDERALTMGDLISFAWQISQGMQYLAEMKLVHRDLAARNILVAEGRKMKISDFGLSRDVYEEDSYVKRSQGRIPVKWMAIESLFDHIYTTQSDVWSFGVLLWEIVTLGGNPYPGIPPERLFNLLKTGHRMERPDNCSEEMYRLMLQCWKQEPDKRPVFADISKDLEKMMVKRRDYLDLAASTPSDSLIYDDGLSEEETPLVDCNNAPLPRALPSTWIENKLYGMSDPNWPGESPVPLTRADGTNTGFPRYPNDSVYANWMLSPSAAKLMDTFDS
FGR, sequence (P09769 whole entry): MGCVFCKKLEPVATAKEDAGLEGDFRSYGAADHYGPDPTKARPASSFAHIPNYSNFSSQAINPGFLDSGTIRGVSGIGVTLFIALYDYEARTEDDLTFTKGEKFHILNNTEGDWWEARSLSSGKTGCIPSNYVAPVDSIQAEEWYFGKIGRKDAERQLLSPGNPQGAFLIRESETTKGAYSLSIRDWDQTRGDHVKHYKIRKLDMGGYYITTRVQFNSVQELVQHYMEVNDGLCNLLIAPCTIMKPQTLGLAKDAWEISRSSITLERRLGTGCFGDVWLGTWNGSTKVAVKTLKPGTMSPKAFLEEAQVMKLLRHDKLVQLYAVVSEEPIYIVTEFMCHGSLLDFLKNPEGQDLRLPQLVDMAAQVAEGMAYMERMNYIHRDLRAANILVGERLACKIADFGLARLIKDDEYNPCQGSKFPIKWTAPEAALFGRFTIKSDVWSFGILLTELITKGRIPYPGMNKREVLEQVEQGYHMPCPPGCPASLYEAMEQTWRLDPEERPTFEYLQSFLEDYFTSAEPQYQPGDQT
SRC, sequence (P12931 whole entry, looked up): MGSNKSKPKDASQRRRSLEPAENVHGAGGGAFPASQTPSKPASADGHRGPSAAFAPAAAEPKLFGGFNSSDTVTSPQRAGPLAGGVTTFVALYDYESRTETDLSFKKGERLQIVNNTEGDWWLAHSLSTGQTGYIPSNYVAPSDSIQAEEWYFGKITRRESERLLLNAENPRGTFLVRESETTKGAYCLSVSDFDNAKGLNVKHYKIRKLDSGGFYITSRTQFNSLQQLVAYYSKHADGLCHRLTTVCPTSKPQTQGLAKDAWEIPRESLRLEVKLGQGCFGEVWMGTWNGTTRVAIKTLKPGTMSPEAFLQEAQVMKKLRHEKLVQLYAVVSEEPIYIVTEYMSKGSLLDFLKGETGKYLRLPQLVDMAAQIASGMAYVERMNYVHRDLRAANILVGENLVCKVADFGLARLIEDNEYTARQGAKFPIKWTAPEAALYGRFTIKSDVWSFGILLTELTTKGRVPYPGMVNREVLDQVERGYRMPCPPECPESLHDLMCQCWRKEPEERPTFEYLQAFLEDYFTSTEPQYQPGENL
CHEK2, sequence (O96017 whole entry): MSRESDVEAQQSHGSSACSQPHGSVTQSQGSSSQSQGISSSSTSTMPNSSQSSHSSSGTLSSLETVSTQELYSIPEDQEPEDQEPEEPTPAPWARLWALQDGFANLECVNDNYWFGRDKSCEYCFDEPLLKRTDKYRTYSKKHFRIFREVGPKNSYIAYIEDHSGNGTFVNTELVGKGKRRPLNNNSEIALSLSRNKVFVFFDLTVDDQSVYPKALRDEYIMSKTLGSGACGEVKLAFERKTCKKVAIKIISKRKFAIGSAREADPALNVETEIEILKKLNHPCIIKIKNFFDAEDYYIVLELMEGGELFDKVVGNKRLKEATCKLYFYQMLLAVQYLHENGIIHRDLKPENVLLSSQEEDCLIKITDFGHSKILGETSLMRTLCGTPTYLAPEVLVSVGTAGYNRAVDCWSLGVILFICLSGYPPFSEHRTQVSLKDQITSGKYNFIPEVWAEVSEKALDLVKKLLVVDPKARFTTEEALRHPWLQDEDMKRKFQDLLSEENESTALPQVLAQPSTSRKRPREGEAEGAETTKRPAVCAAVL

Row | IC50 (CDK7 [1]) [µM] | IC50 (CDK2) [µM] | IC50 (CDK9) [µM] | IC50 (CHEK2) [µM] | IC50 (FGR) [µM] | IC50 (HIPK4) [µM] | IC50 (PRKCQ) [µM] | IC50 (RET) [µM] | IC50 (SRC) [µM] | IC50 (MELK) [µM] | IC50 [2] [µM] | IC50 [3] [µM] | IC50 (Kelly neuroblastoma) [µM] | Covalent labeling of CDK7 peptide detected by mass spectrometry (CDK7 [4]) | SMILES
1 | < 0.1 | ≥ 1 | ≥ 1 | < 0.1 | < 0.1 | 0.1 to 1 | < 0.1 | < 0.1 | < 0.1 | 0.1 to 1 | < 0.5 | < 0.5 | 0.5 to 5000 | labeled with Compound 101 at Cys312 | C=CC(=O)Nc1ccc(C(=O)Nc2cccc(Nc3n[nH]c4c3CN(C(=O)N[C@H](CN(C)C)c3ccccc3)C4(C)C)c2)cc1 [Compound 101, (S)-3-((3-(4-acrylamidobenzamido)phenyl)amino)-N-(2-(dimethylamino)-1-phenylethyl)-6,6-dimethyl-4,6-dihydropyrrolo[3,4-c]pyrazole-5(1H)-carboxamide]
2 | < 0.1 |  |  |  |  |  |  |  |  |  | 0.5 to 5000 | 0.5 to 5000 |  |  | CCC(=O)Nc1ccc(C(=O)Nc2cccc(Nc3n[nH]c4c3CN(C(=O)N[C@H](CN(C)C)c3ccccc3)C4(C)C)c2)cc1 [Compound 104, (S)-N-(2-(dimethylamino)-1-phenylethyl)-6,6-dimethyl-3-((3-(4-propionamidobenzamido)phenyl)amino)-4,6-dihydropyrrolo[3,4-c]pyrazole-5(1H)-carboxamide]
3 | 0.1 to 1 |  |  |  |  |  |  |  |  | 0.1 to 1 |  |  | ≥ 5000 |  | C=CC(=O)Nc1ccc(C(=O)Nc2cccc(Nc3n[nH]c4c3CN(C(=O)NCCN(C)C)C4(C)C)c2)cc1 [Compound 106, 3-((3-(4-acrylamidobenzamido)phenyl)amimo)-N-(2-(dimethylamino)ethyl)-6,6-dimethyl-4,6-dihydropyrrolo[3,4-c]pyrazole-5(1H)-carboxamide]
4 | < 0.1 |  |  |  |  |  |  |  |  |  | 0.5 to 5000 |  |  |  | C=CC(=O)Nc1ccc(C(=O)Nc2cccc(Nc3n[nH]c4c3CN(C(=O)N3CCN(C)CC3)C4(C)C)c2)cc1 [Compound 107, 4-acrylamido-N-(3-((6,6-dimethyl-5-(4-methylpiperazine-1-carbonyl)-1,4,5,6-tetrahydropyrrolo[3,4-c]pyrazol-3-yl)amino)phenyl)benzamide]
